Consider eleven compounds from patent US5250542A, “Peripherally selective piperidine carboxylate opioid antagonists” (Eli Lilly and Company, priority 1992, dated 1993).

Structures can show the parent of a compound that is named as a salt. Where two headings read alike, the source gives them in different places.

In one experiment the target is T1, mu receptor (Rattus norvegicus, UniProt P33535).
T1 construct: rat whole brain minus cerebellum for mu was homogenized; from tissue; host or cells: brain of male Sprague Dawley rats, whole brain minus cerebellum, homogenate fraction
T1 sequence (P33535 whole entry): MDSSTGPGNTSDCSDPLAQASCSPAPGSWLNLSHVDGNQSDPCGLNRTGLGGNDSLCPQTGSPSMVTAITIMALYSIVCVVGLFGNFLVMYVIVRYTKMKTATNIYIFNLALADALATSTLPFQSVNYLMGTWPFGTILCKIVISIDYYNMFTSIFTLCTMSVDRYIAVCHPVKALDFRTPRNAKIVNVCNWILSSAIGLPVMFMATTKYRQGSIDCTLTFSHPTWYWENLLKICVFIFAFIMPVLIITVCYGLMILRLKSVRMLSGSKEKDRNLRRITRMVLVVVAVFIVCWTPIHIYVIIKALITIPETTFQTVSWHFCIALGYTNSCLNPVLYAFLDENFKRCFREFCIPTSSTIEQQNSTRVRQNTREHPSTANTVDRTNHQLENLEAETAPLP
The experiment can be described thus: opioid receptor binding assay, [3H] NAL (tritiated naloxone), mu receptor. Set-up: species or system rat (Male Sprague Dawley), brain minus cerebellum. The method, then:
This assay was conducted by the following procedure.
Male Sprague Dawley rats for mu site experiments were sacrificed via decapitation and the brains were removed. The brain tissue, rat whole brain minus cerebellum for mu was homogenized in a Teflon and glass tissue homogenizer. A supernatant I, pellet IV, fraction was frozen in a nitrogen freezer at 1.33 g/ml concentration and stored for not longer than five weeks prior to use. Pellets were rehydrated with physiological buffer prior to use.
The reaction was initiated by the addition of the resuspended tissue which had been preincubated at 37° C. for 20 minutes. The reaction mixture was incubated in a 37° C. water bath for 20 minutes. The reaction was terminated by rapid filtration, (Brandel Cell Harvestor), through Whatman GF/B glass filters that had been presoaked in Krebs-Hepes buffer pH 7.4. The filters were then washed 2x with 5 ml of ice cold Krebs-Hepes buffer pH 7.4. Washed filters were placed in scintillation vials and 10 ml RedySolv, (Brandel), was added and samples counted in a Searle D-300 beta counter. Means and standard error statistics were calculated for triplicate experimental determinations in certain cases. The incubation time for the reaction mixture was 20 minutes at 37° C.
Ki values were calculated using a minitab statistical program according to the following formula: [formula] wherein IC50 is the concentration at which 50% of the ^3 H ligand is displaced by the test compounds and KD is the dissociation constant for the ^3 H ligand at the receptor site. KD can be determined as described by Bennett, "Methods in Binding Studies", Neurotransmitter Receptor Binding, Yamamura, et al., ed., p. 57-90, Raven Press, N.Y. (1978) incorporated herein by reference.
In the Table, column 1 sets forth the Example Number of the compound evaluated, column 2 the Ki value in nanomolar (nM) at the mu receptor and columns 3 and 4 the percent displacement by the test compound at the indicated concentration, i.e., 10 nm or 100 nm.

In a further experiment the target is T2, opioid receptor (Mus musculus, UniProt P42866).
T2 construct: Five CF-1 male mice (Charles River, Portage, Mich.); from tissue; host or cells: living CF-1 male mice (in vivo test; endogenous receptor)
T2 sequence (P42866 whole entry): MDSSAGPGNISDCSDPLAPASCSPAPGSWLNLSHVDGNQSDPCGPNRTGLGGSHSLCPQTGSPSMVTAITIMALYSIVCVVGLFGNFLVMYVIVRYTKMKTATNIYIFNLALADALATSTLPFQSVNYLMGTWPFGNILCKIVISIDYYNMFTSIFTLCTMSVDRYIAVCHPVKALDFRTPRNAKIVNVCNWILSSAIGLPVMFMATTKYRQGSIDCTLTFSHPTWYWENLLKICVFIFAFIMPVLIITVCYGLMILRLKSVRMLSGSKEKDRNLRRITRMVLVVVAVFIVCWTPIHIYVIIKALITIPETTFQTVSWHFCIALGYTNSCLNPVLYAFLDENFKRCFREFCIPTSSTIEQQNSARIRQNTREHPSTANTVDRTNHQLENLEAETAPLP
The experiment can be described thus: mouse writhing analgesis test: block of morphine-induced analgesia. It is filed as in vivo, CF-1 male mice. Set-up: unit not given here. To be noted: dose of antagonist that reduced the inhibition of writhing produced by 1.25 mg/kg morphine sulfate to 50%, subcutaneous, 20 min before acetic acid. As for the experimental part: In order to determine in vivo opioid receptor antagonism, the mouse writhing analgesis test was used. Test compounds were measured for their ability to block morphine-induced analgesia.
Five CF-1 male mice (Charles River, Portage, Mich.), weighing approximately 20 g after being fasted overnight, were observed simultaneously for the writhing response. The writhing response was defined as a contraction of the abdominal musculature, followed by the extension of the hind limbs, and was induced by the intraperitoneal adminstration of 0.6% acetic acid in a volumne of 1 ml/100 g body weight. The observation period was 10 min. in duration, beginning 5 min. after injection of acetic acid. The percent inhibition of writhing was calculated from the average number of writhes in the control (non-drug) group. Each data point is the mean (±standarderror) for five mice. The ED50 was defined as the dose of agonist that inhibited mean writhing by 50%. […] Each mouse was only used once. All drugs were administered subcutaneously (1 ml/100 g bwt) 20 min. before the injection of acetic acid.
Background: An intraperitoneal irritant provokes the stretching counted in writhing tests.

The target in experiment [1] is T3, peripheral opioid receptors (Mus musculus, UniProt P42866).
T3 construct: Mice maintained (6 mice/cage) on 0.01M saccharin water with 1 g/1 morphine sulfate; from tissue; host or cells: living morphine-maintained mice (in vivo test; endogenous receptor)
T3 sequence (P42866 whole entry): as above
The experiment can be described thus: precipitated diarrhea in morphine-maintained mice (peripheral opioid activity) and comparison with the writhing test. The settings on record: for Ratio (AD50 mouse writhing test / ED50 mouse diarrhea test): higher ratio = greater relative antagonism of peripheral opioid receptors; for ED50: mouse, 0.5 h; for ED50 / ED50 (diarrhea): morphine-maintained mice, antagonist subcutaneous or oral, 30 min observation; for ED50 (diarrhea): 30 min. It is filed as in vivo. Also noted: ED50 (diarrhea): unit not given beside the values. The method, then:
Determinations of peripheral opioid activity were conducted. Mice maintained (6 mice/cage) on 0.01M saccharin water with 1 g/1 morphine sulfate for a minimum of 10 days with mice averaging 3.0^+ g water/mouse/day for at least three days are used as subjects. The morphine water was removed 45 min. prior to injection with the proposed opioid antagonist. Initial testing consisted of 5 mice/dose of compound. The antagonist was given by the subcutaneous or oral, route of administration,and the mice were placed in 11-14"×4 7/12 I.D. clear plastic cylinders with white paper towels used for a floor.
The mice were then monitored visually for 30 minutes post-injection for the presence of jumping and of diarrhea. Jumping was scored as positive if at least one jump occurred in 30 min. Diarrhea was scored as positive when feces were moist enough to stain the white paper at the base of the cylinder. After 30 minutes of testing, the mice were placed back in original cages, put back on morphine water, and not tested again for 48 hrs. Lower doses of the antagonist compounds were tested until threshold doses for diarrhea were determined. Diarrhea is a peripherally mediated sign of precipitated opiate abstinence.
The extent of the effect on peripheral activity compared to central activity of the present compounds can-be determined by comparing the AD50 for the mouse writhing test with the ED50 for the mouse diarrhea test. The higher the ratio, the greater the relative antagonism of the peripheral opioid receptors by a particular compound.

Where [2] appears, read: 20 min, read-out: % displacement at 10 nM.
The mark [3] stands for this setting: 20 min, read-out: % displacement at 100 nM.
Where [4] appears, read: 20 min, read-out: % displacement at 10 nM, 10 nM test compound, [3H] naloxone 0.5 nM.
The mark [5] stands for this setting: 20 min, read-out: % displacement at 100 nM, 100 nM test compound, [3H] naloxone 0.5 nM.
The mark [6] stands for this setting: [3H] naloxone 0.5 nM, pH 7.4, 37° C., 20 min.

In turn, `CCOC(=O)C(Cc1ccccc1)CN1CC[C@@](C)(c2cccc(O)c2)[C@@H](C)C1` (relative stereo) [Example 4A, trans-4-(3-hydroxyphenyl)-3,4-dimethyl-a-(phenylmethyl)-1-piperidinepropanoic acid, ethyl ester hydrochloride] showed an inhibition constant Ki at mu receptor of 1.38 nM. The inhibition at 0.01 µM on mu receptor (setting [2]) came to 92%. Further, on mu receptor (setting [3]), the inhibition at 0.1 µM was found to be 98%. The compound also had an AD50 at opioid receptor of 1.08. Also, in experiment [1], the “Ratio (AD50 mouse writhing test / ED50 mouse diarrhea test)” value was determined as 9 and the 50% effect level (ED50) was put at a dose of 0.012 mg/kg.
At mu receptor, `C[C@H]1CN(CC(Cc2ccccc2)C(=O)O)CC[C@@]1(C)c1cccc(O)c1` (relative stereo) [Example 4B, 4-(3-hydroxyphenyl)-3,4-dimethyl-a-(phenylmethyl)-1-piperidinepropanoic acid monohydrate] displayed an inhibitory constant (Ki) of 2.62 nM. Moreover, the inhibition at 0.01 µM at mu receptor (setting [2]) is 83%. For the same compound, the inhibition at 0.1 µM on mu receptor (setting [3]) was 97%. Besides, the AD50 on opioid receptor was found to be 8.90. Also, in experiment [1], the “Ratio (AD50 mouse writhing test / ED50 mouse diarrhea test)” value stood at 809 and the 50% effect level (ED50) was put at a dose of 0.011 mg/kg.
On to `CCOC(=O)C(CC1CCCCC1)CN1CC[C@@](C)(c2cccc(O)c2)[C@@H](C)C1` (relative stereo) [Example 5A, 3-(3,4-dimethyl-4-(3-hydroxyphenyl)-1-piperidinyl]-2-(cyclohexylmethyl)propanoic acid ethyl ester hydrochloride], for which affinity on mu receptor was put at a Ki of 13.8 nM. On mu receptor (setting [4]), the inhibition at 0.01 µM is 61%. Moreover, the inhibition at 0.1 µM on mu receptor (setting [5]) turned out to be 93%. Besides, the AD50 on opioid receptor amounted to 1.2. In experiment [1], the “Ratio (AD50 mouse writhing test / ED50 mouse diarrhea test)” value turned out to be 20 and it took a dose of 0.06 mg/kg to reach the 50% effect level (ED50).
For the compound `C[C@H]1CN(CC(CC2CCCCC2)C(=O)O)CC[C@@]1(C)c1cccc(O)c1` (relative stereo) [Example 5B, 3-[3,4-dimethyl-4-(3-hydroxyphenyl)-1-piperidinyl]-2-(cyclohexylmethyl)-propanoic acid monohydrate], on mu receptor, the affinity, expressed as Ki, was 1.11 nM. Besides, the inhibition at 0.01 µM at mu receptor (setting [4]) stood at 93%. Further, the inhibition at 0.1 µM on mu receptor (setting [5]) was found to be 99%. Moreover, on opioid receptor, the AD50 is on record as 1.6. Besides, in experiment [1], the “Ratio (AD50 mouse writhing test / ED50 mouse diarrhea test)” value is listed as 7 and the ED50 turned out to be 0.24 mg/kg.
As to `CCOC(=O)C(CCN1CC[C@@](C)(c2cccc(O)c2)[C@@H](C)C1)c1ccccc1` (relative stereo) [Example 8A, trans-4-[(3-Hydroxyphenyl)-3,4-dimethyl-1-piperidine]-2-phenyl butanoic acid, ethyl ester hydrochloride], at mu receptor (setting [4]), the inhibition at 0.01 µM worked out at 88%. In addition, the inhibition at 0.1 µM on mu receptor (setting [5]) stood at 95%. The compound further registered a Ki on mu receptor (setting [6]) of 2.01 nM. The compound further had an AD50 at opioid receptor of 0.70. In experiment [1], the “Ratio (AD50 mouse writhing test / ED50 mouse diarrhea test)” value was found to be 35 and the ED50 was 0.02 mg/kg.
As to `C[C@H]1CN(CCC(C(=O)O)c2ccccc2)CC[C@@]1(C)c1cccc(O)c1` (relative stereo) [Example 8B, trans-4-[(3-Hydroxyphenyl)-3,4-dimethyl-1-piperidine]-2-phenyl butanoic acid hydrochloride], at mu receptor (setting [4]), the inhibition at 0.01 µM came out at 100%. Moreover, the inhibition at 0.1 µM on mu receptor (setting [5]) is 100%. The inhibition constant (Ki) on mu receptor (setting [6]) was determined as 0.27 nM. In addition, on opioid receptor, the AD50 stood at 0.64. In addition, in experiment [1], the “Ratio (AD50 mouse writhing test / ED50 mouse diarrhea test)” value amounted to 53 and it took a dose of 0.012 mg/kg to reach the 50% effect level (ED50).
For the compound `CNC(=O)CNC(=O)C(CCN1CC[C@@](C)(c2cccc(O)c2)[C@@H](C)C1)c1ccccc1` (relative stereo) [Example 13, N-(methyl)-2-[[4-[4-(3-hydroxyphenyl)-3,4-dimethyl-1-piperidinyl]-2-phenyl-1-oxobutyl]amino]acetamide monohydrochloride], the inhibition at 0.01 µM at mu receptor (setting [4]) was determined as 94%. Moreover, the inhibition at 0.1 µM at mu receptor (setting [5]) worked out at 95%. Moreover, the affinity at mu receptor (setting [6]), expressed as Ki, was 0.43 nM. Moreover, in experiment [1], the “Ratio (AD50 mouse writhing test / ED50 mouse diarrhea test)” value is over 125 and the ED50 came to 0.32 mg/kg.
Take `C[C@H]1CN(CCC(C(=O)NCC(N)=O)c2ccccc2)CC[C@@]1(C)c1cccc(O)c1` (relative stereo) [Example 14, trans-N-(2-amino-2-oxoethyl)-4-[3,4-dimethyl-4-(3-hydroxyphenyl)-1-piperidinyl]-2-phenylbutanamide monohydrochloride monohydrate]: the Ki on mu receptor is 6.42 nM. The inhibition at 0.01 µM on mu receptor (setting [2]) worked out at 87%. At mu receptor (setting [5]), the inhibition at 0.1 µM turned out to be 93%. For the same compound, in experiment [1], the “Ratio (AD50 mouse writhing test / ED50 mouse diarrhea test)” value is reported as over 43 and it took a dose of 0.92 mg/kg to reach the 50% effect level (ED50).
For `CC(C)COC(=O)CNC(=O)C(Cc1ccccc1)CN1CC[C@@](C)(c2cccc(O)c2)[C@@H](C)C1` (single isomer, unassigned) [Example 97D], the AD50 stood at 32 at opioid receptor (listed as 97D**, 1.25 mg/kg) and 12.7 on opioid receptor (listed as 97D*, 1.25 mg/kg). Further, the figures for the “Ratio (AD50 mouse writhing test / ED50 mouse diarrhea test)” value in experiment [1] (listed as 97D*) and in experiment [1] (listed as 97D**) were 317 and 53, respectively. Also, the “ED50 (diarrhea)” value stood at 0.6 in experiment [1] (listed as 97D**) and 0.04 in experiment [1] (listed as 97D*).
In the case of `C[C@H]1CN(CC(Cc2ccccc2)C(=O)NCC(=O)OC2CCCCC2)CC[C@@]1(C)c1cccc(O)c1` (stereo partly shown) [Example 52, 2-[[2-(phenylmethyl)-1-oxo-3-[4-(3-hydroxyphenyl)-3,4-dimethyl-1-piperidinyl]propyl]amino]-ethanoic acid cyclohexyl ester monohydrochloride], the inhibition at 0.01 µM on mu receptor (20 min, 10 nM test compound, [3H] naloxone 0.5 nM, read-out: % displacement at 10 nM) worked out at 53%. For the same compound, the inhibition at 0.1 µM at mu receptor (20 min, 100 nM test compound, [3H] naloxone 0.5 nM, read-out: % displacement at 100 nM) was determined as 92%. Moreover, in experiment [1], the “Ratio (AD50 mouse writhing test / ED50 mouse diarrhea test)” value worked out at 40 and the ED50 amounted to 0.2 mg/kg.
Take `CCOC(=O)CCCNC(=O)C(Cc1ccccc1)CN1CC[C@@](C)(c2cccc(O)c2)[C@@H](C)C1` (stereo partly shown) [Example 61, 4-[[3-[4-(3-hydroxyphenyl)-3,4-dimethyl-1-piperidinyl]-1-oxo-2-(phenylmethyl)propyl]-amino]butanoic acid ethyl ester monohydrochloride monohydrate]: at mu receptor (setting [4]), the inhibition at 0.01 µM worked out at 98%. On mu receptor (setting [5]), the inhibition at 0.1 µM was 99%. Moreover, on mu receptor (setting [6]), the Ki turned out to be 1.91 nM. In experiment [1], the “Ratio (AD50 mouse writhing test / ED50 mouse diarrhea test)” value came to 66 and the ED50 is 0.05 mg/kg.

The term Ki denotes a dissociation constant, usually derived from enzyme kinetics or from competition with a known ligand. The term ED50 denotes the dose that gives a 50% effect, or the effect in half of the subjects.
